Measured values reported in patent US20080214537A1, “BRIDGED PHENANTHRIDINES” (CARA THERAPEUTICS, INC., priority 2007, published 2008).
pEC50: −log10 of the molar value.

Legend:
[1] = Body temperature (rectal probe) in writhing assay mice; assay type: in vivo; conditions: 10 mg/kg subcutaneous; thirty minutes after dosing
Protocol: Male ICR mice, 20-40 grams in weight, served as experimental subjects. To determine the activity and potency of test compounds, mice were weighed and then injected with different doses of the compound solution or vehicle subcutaneously in the back of the neck and then returned to their home cages. Thirty minutes later, body temperatures were obtained using a digital rectal probe and then mice were immediately injected with 10 ml/kg of a 0.6% (v/v) acetic acid solution into the right lower quadrant of the abdomen. Mice were then placed in individual observation chambers (usually a 4000 ml beaker) with a fine layer of bedding at the bottom and the recording of the number of writhes begun immediately. The number of writhes was counted over a 15-min period starting from the time of the acetic acid injection. Raw data were analyzed using a one-way ANOVA followed by Dunnett's post-tests. For dose-response analysis, raw data were converted to % maximum possible effect (% MPE) using the formula: […]

[2] = target: human CB2 receptor (hCB2) (Homo sapiens, UniProt P34972); assay: cAMP assay (LANCE TR-FRET) in CHO-K1 cells expressing hCB2; assay type: cell-based; conditions: for Emax: CHO-K1, intrinsic activity: percent maximal activation compared to full activation by CP55,940 (1 μM = 100%), read-out: hCB2 % Max Range; for pEC50: CHO-K1 cells stably expressing hCB2, intracellular cAMP, NKH-477 prestimulated, average of at least three replicates
Protocol: (§1) The ability of compounds to act as agonists or inverse agonists at human CB2 and CB1 receptors (hCB2, hCB1, respectively) was determined by measuring changes in intracellular cAMP levels. Chinese Hamster Ovary (CHO-K1) cell lines stably expressing hCB2 (Genebank: X74328) or hCB1 (Genebank: X54937) were purchased from Euroscreen (Gosselies, Belgium).
(§2) Cell lines were grown in suspension in EX-CELL 302 CHO Serum-free medium (Sigma, catalog #14324C) supplemented with 1% Fetal Bovine Serum, glutamine and with or without non-essential amino-acids under 0.4 mg/mL G418 selection.
(§3) Receptor mediated responses were determined by measuring changes in intracellular cAMP using LANCE cAMP detection kit (catalog #AD0264, PerkinElmer, Wellesley, Mass.) based on time-resolved fluorescence resonance energy transfer (TR-FRET). Changes in cAMP were determined in cells pre-incubated with IBMX (isobutyl methylxanthine) and prestimulated with NKH-477 (a water soluble forskolin derivative, catalog #1603, Tocris, Ellisville, Mo.) to increase basal cAMP levels as detailed below.
(§4) On the day of the experiment, cells were spun at low speed for 5 min at room temperature. The supernatant was removed and cells were resuspended in stimulation buffer (Hanks Buffered Salt Solution/5 mM HEPES, containing 0.5 mM IBMX (catalog #17018, Sigma) and 0.02% BSA (PerkinElmer, catalog #CR84-100)). Cell clumps were removed by filtering through cell strainer 40 μm (BD Falcon, Discovery Labware, Bedford, Mass.) and diluted to 2×10^5 cells/mL. Antibody supplied with the LANCE cAMP immunoassay kit was then added according to the manufacturer's instructions. An aliquot of cells was taken for un-induced controls. To the remaining cells was added NKH-477 (a water soluble forskolin derivative, Tocris catalog #1603) to a final concentration of 2-8 μM. Cells were then incubated for either 25 or 30 min at room temperature prior to adding to Proxiplates containing test compounds (final DMSO concentration was less than 0.5%) with a Multidrop bulk dispenser, followed by a sixty minute incubation at room temperature. The response was stopped by addition of the detection mix supplied with the LANCE kit.
(§5) The reagents were allowed to equilibrate for three hours prior to reading on an Envision multi-mode detector (PerkinElmer). TR-FRET was measured using a 330-380 nm excitation filter, 615 and 665 nm emission filters, dichroic mirror 380 nm and Z=1 mm.
(§6) Cyclic AMP concentrations in each well were back-calculated from a cAMP standard curve run concurrently during each assay. Each plate contained 16 wells of forskolin stimulated cells and 16 wells of forskolin plus CP55,940-treated. CP55,940-treated cells were treated with CP55,940 (Tocris catalog #0949) at 1 μM and the maximal response was used as the full range (100%) standard. WIN55,212 (Tocris catalog #1038) was used as an internal standard. Concentrations of cAMP were expressed as a percent of the difference of these two groups of wells. Concentration-response data including EC50 (the concentration of compound producing 50% of the maximal response) and intrinsic activity (the percent maximal activation compared to full activation by CP55,940) were determined using a four-parameter non-linear regression algorithm (Xlfit equation 251, IDBS). Assays were performed with at least three replicates per compound and averaged results for the several compounds of the invention are shown in Table I.

Male ICR mice = assay: Acetic acid-induced writhing assay in mice; assay type: in vivo; conditions: 10 mg/kg subcutaneous, 30 min before 0.6% acetic acid i.p.; writhes counted over 15 min
From the text: 12: 525-562; Ramabadran and Bansinath (1986) Pharm. Res. 3: 263-270]. Intraperitoneal administration of dilute acetic acid solution causes a writhing behavior in mice. A writhe is defined as a contraction of the abdominal muscles accompanied by an extension of the forelimbs and elongation of the body. The number of writhes observed in the presence and absence of test compounds is counted to determine the analgesic activity of the compounds.
Male ICR mice, 20-40 grams in weight, served as experimental subjects. To determine the activity and potency of test compounds, mice were weighed and then injected with different doses of the compound solution or vehicle subcutaneously in the back of the neck and then returned to their home cages. Thirty minutes later, body temperatures were obtained using a digital rectal probe and then mice were immediately injected with 10 ml/kg of a 0.6% (v/v) acetic acid solution into the right lower quadrant of the abdomen. Mice were then placed in individual observation chambers (usually a 4000 ml beaker) with a fine layer of bedding at the bottom and the recording of the number of writhes begun immediately. The number of writhes was counted over a 15-min period starting from the time of the acetic acid injection. Raw data were analyzed using a one-way ANOVA followed by Dunnett's post-tests. For dose-response analysis, raw data were converted to % maximum possible effect (% MPE) using the formula:
% MPE=((Wc−Wv)/(0−Wv))*100
where Wc is the number of writhes in compound-treated mice and Wv is the mean number of writhes in vehicle-treated mice. The dose which elicited 50% attenuation of hypersensitivity (ED50) was determined using linear regression analysis. (Tallarida & Murray, 1987).

[3] = target: human CB1 receptor (hCB1) (Homo sapiens, UniProt P21554); assay: cAMP assay (LANCE TR-FRET) in CHO-K1 cells expressing hCB1; assay type: cell-based; conditions: activity on hCB1 represents inverse agonism; for Emax: CHO-K1, percent of range defined by CP55,940 (1 μM = 100%), read-out: hCB1 % Max Range; for pEC50: CHO-K1 cells stably expressing hCB1, intracellular cAMP, NKH-477 prestimulated
Protocol: as §1, §2, §3, §4, §5
as §6, with “IDBS).” for “IDBS). Assays were performed with at least three replicates per compound and averaged results for the several compounds of the invention are shown in Table I.”

Sequence of human CB2 receptor (hCB2) (P34972 whole entry): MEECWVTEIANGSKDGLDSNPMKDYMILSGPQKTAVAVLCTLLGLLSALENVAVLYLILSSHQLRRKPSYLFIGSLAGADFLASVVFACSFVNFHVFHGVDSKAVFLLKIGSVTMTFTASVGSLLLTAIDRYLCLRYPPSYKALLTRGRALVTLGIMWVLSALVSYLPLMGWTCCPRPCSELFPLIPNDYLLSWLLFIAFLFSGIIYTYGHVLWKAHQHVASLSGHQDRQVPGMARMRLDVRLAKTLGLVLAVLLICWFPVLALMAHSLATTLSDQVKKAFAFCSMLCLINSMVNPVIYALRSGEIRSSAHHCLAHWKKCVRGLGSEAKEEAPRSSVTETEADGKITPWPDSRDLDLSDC
Sequence of human CB1 receptor (hCB1) (P21554 whole entry): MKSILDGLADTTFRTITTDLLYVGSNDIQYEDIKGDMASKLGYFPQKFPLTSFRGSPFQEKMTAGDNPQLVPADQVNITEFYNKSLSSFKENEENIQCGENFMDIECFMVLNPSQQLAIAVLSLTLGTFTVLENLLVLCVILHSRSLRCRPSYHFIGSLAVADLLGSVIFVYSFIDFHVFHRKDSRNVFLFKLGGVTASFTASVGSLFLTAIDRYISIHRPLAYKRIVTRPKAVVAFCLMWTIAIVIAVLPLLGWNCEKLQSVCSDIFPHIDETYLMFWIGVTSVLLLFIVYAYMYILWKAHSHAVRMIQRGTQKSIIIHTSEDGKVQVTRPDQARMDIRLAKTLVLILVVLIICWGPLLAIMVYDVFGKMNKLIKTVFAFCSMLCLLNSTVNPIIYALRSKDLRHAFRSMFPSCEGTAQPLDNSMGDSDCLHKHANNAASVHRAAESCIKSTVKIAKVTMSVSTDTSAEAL

Compound | Δ BODY TEMP. (° C.): observed reduction in body temperature [1] [°C] | Emax [2] [%] | pEC50 [2] | % MPE (Male ICR mice) [%] | Emax [3] [%] | pEC50 [3] | hCB1 % Max Range ([3]; percent of range defined by CP55,940 (1 μM = 100%)) [%]
O=S(=O)(c1ccc2c(c1)C1C3CCC(C3)C1C(c1ccccc1)N2)N1CCCCC1 (centres unmarked) [(3b), Bridged 6-phenyl-2-(piperidin-1-ylsulfonyl)-5,6,6a,7,8,9,10,10a-octahydrophenanthridine] | 0.4 | 101 | 9.42 | 12 | < 40 | < 5.00 | 
O=S(=O)(c1ccc2c(c1)C1C3CCC(C3)C1C(c1c(Cl)cccc1Cl)N2)N1CCCCC1 (centres unmarked) [(9), Bridged 6-(2,6-dichlorophenyl)-2-(piperidin-1-ylsulfonyl)-5,6,6a,7,8,9,10,10a-octahydrophenanthridine] |  | 75 | 7.10 |  | < 40 | < 5.00 | 
O=S(=O)(c1ccc2c(c1)C1C3CCC(C3)C1C(c1ccccc1)N2)N1CCOCC1 (centres unmarked) [(34), Bridged 4-(6-phenyl-5,6,6a,7,8,9,10,10a-octahydrophenanthridin-2-ylsulfonyl)morpholine] | 0.1 | 102 | 9.25 | 23 | < 40 | < 5.00 | 
CC(=O)NS(=O)(=O)c1ccc2c(c1)C1C3CCC(C3)C1C(c1ccccc1)N2 (centres unmarked) [(46), Bridged N-(6-phenyl-5,6,6a,7,8,9,10,10a-octahydrophenanthridin-2-ylsulfonyl)acetamide] | 0.2 | 96.9 | 7.44 | 41 | < 40 | < 5.00 | 
O=C(NCc1ccccc1)c1ccc2c(c1)C1C3CCC(C3)C1C(c1ccccc1)N2 (centres unmarked) [(28), Bridged N-benzyl-6-phenyl-5,6,6a,7,8,9,10,10a-octahydrophenanthridine-2-carboxamide] |  | 84.4 | 6.43 |  | < 40 | < 5.00 | 
CN(C)S(=O)(=O)c1ccc2c(c1)C1C3CCC(C3)C1C(c1ccccc1)N2 (centres unmarked) [(11), Bridged N,N-dimethyl-6-phenyl-5,6,6a,7,8,9,10,10a-octahydrophenanthridine-2-sulfonamide] |  | 99 | 9.01 |  | < 40 | < 5.00 | 
O=S(=O)(c1ccc2c(c1)C1C3CCC(C3)C1C(c1cncnc1)N2)N1CCOCC1 (centres unmarked) [(35), Bridged 4-(6-(pyrimidin-5-yl)-5,6,6a,7,8,9,10,10a-octahydrophenanthridin-2-ylsulfonyl)morpholine] |  | 66.6 | 5.89 |  | < 40 | < 5.00 | 
Cc1nc(-c2ccc3c(c2)C2C4CCC(C4)C2C(c2ccccc2)N3)cs1 (centres unmarked) [(43), Bridged 2-methyl-4-(6-phenyl-5,6,6a,7,8,9,10,10a-octahydrophenanthridin-2-yl)thiazole] |  | 64.6 | 6.66 |  | 182 | 5.41 | 
CC(=O)Nc1ccc2c(c1)C1C3CCC(C3)C1C(c1ccc(C)cc1)N2 (single isomer, unassigned) [(25a), Bridged N-(6-p-tolyl-5,6,6a,7,8,9,10,10a-octahydrophenanthridin-2-yl)acetamide] |  | < 40 | < 5.00 |  |  | 5.48 | 78
O=C(Nc1ccc2c(c1)C1C3CCC(C3)C1C(c1c(Cl)cccc1Cl)N2)C1CC1 (centres unmarked) [(20), Bridged N-(6-(2,6-dichlorophenyl)-5,6,6a,7,8,9,10,10a-octahydrophenanthridin-2-yl)cyclopropanecarboxamide] |  | < 40 | < 5.00 |  | < 40 | < 5.00 | 
c1ccc(C2Nc3ccc(N4CCOCC4)cc3C3C4CCC(C4)C23)cc1 (centres unmarked) [(17), Bridged 4-(6-phenyl-5,6,6a,7,8,9,10,10a-octahydrophenanthridin-2-yl)morpholine] |  | 94 | 6.85 |  | < 40 | < 5.00 | 
